“And” between values parts separate entries of the source, which are not always exact repeats. Identical values can stand only once. Inconclusive results and toxic doses are left out. Rule as the data show it: active = T/C of 150% or more; inactive = T/C below 125%.
System: L1210 leukemia ip in BDF1 mice, survival T/C
Test: NCI In Vivo Anticancer Drug Screen. Data for tumor model L1210 Leukemia (intraperitoneal) in B6D2F1 (BDF1) mice
Details: endpoint: mean survival time, higher = longer survival
In short: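 Tumor was transplanted into mice, which were then dosed with test compound or vehicle alone. Survival was recorded for each group, and the treated figure was expressed relative to the control figure.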

[1] = dose: 100.0 mg/kg/injection, schedule: Q04DX003 (ip), vehicle: Klucel (hydroxypropylcellulose) (HPC)
[2] = dose: 200.0 mg/kg/injection, schedule: Q04DX003 (ip), vehicle: Klucel (hydroxypropylcellulose) (HPC)
[3] = dose: 400.0 mg/kg/injection, schedule: Q04DX003 (ip), vehicle: Klucel (hydroxypropylcellulose) (HPC)
[4] = dose: 100.0 mg/kg/injection, schedule: Q01DX001 (ip), vehicle: saline
[5] = dose: 100.0 mg/kg/injection, schedule: Q04DX003 (ip), vehicle: saline
[6] = dose: 200.0 mg/kg/injection, schedule: Q04DX003 (ip), vehicle: saline
[7] = dose: 400.0 mg/kg/injection, schedule: Q04DX003 (ip), vehicle: saline
[8] = dose: 100.0 mg/kg/injection, schedule: Q01DX001 (ip), vehicle: carboxymethylcellulose (CMC)
[9] = dose: 200.0 mg/kg/injection, schedule: Q01DX001 (ip), vehicle: carboxymethylcellulose (CMC)
[10] = dose: 400.0 mg/kg/injection, schedule: Q01DX001 (ip), vehicle: carboxymethylcellulose (CMC)
[11] = dose: 100.0 mg/kg/injection, schedule: Q04DX002 (ip), vehicle: Klucel (hydroxypropylcellulose) (HPC)
[12] = dose: 10.0 mg/kg/injection, schedule: Q01DX001 (ip), vehicle: saline
[13] = dose: 20.0 mg/kg/injection, schedule: Q01DX001 (ip), vehicle: saline
[14] = dose: 40.0 mg/kg/injection, schedule: Q01DX001 (ip), vehicle: saline
[15] = dose: 100.0 mg/kg/injection, schedule: Q01DX009 (ip), vehicle: Klucel (hydroxypropylcellulose) (HPC)
[16] = dose: 200.0 mg/kg/injection, schedule: Q01DX009 (ip), vehicle: Klucel (hydroxypropylcellulose) (HPC)

Measured: T/C

N=C1SC(c2ccccc2)c2ccccc21 (configuration not stated)
inactive: dose: 100.0 mg/kg/injection, schedule: Q01DX001 (ip), vehicle: Klucel (hydroxypropylcellulose) (HPC) 98 % of control | dose: 200.0 mg/kg/injection, schedule: Q01DX001 (ip), vehicle: Klucel (hydroxypropylcellulose) (HPC) 93 % of control | dose: 400.0 mg/kg/injection, schedule: Q01DX001 (ip), vehicle: Klucel (hydroxypropylcellulose) (HPC) 95 % of control

O=C1CC(c2c[nH]c3nccnc23)NN1 (configuration not stated)
inactive: dose: 6.25 mg/kg/injection, schedule: Q01DX009 (ip), vehicle: water 100 % of control | dose: 12.5 mg/kg/injection, schedule: Q01DX009 (ip), vehicle: water 100 % of control | dose: 25.0 mg/kg/injection, schedule: Q01DX009 (ip), vehicle: water 99 % of control | dose: 50.0 mg/kg/injection, schedule: Q01DX009 (ip), vehicle: water 105 % of control | dose: 100.0 mg/kg/injection, schedule: Q01DX009 (ip), vehicle: water 94 % of control | dose: 200.0 mg/kg/injection, schedule: Q01DX009 (ip), vehicle: water 89 % of control

Cc1c2ccc(=O)cc-2oc2cc(O)ccc12
inactive: [1] 92 % of control | [2] 94 % of control | [3] 87 % of control

CCO[Si](C)(C)CCl
inactive: [4] 98 % of control | dose: 200.0 mg/kg/injection, schedule: Q01DX001 (ip), vehicle: saline 101 % of control | dose: 400.0 mg/kg/injection, schedule: Q01DX001 (ip), vehicle: saline 106 % of control

COc1ccc2c(c1)/C(=C/CCN(C)C)c1ccccc1S2
inactive: dose: 6.0 mg/kg/injection, schedule: Q01DX Z (ip), vehicle: methylcellulose (MC) 110 % of control | dose: 6.25 mg/kg/injection, schedule: Q01DX009 (ip), vehicle: carboxymethylcellulose (CMC) 97 % of control | dose: 12.0 mg/kg/injection, schedule: Q01DX Z (ip), vehicle: methylcellulose (MC) 114 % of control | dose: 12.5 mg/kg/injection, schedule: Q01DX001 (ip), vehicle: carboxymethylcellulose (CMC) 100 % of control | dose: 12.5 mg/kg/injection, schedule: Q01DX009 (ip), vehicle: carboxymethylcellulose (CMC) 108 % of control | dose: 12.5 mg/kg/injection, schedule: Q04DX003 (ip), vehicle: other 105 % of control | dose: 15.0 mg/kg/injection, schedule: Q01DX Z (ip), vehicle: methylcellulose (MC) 104 % of control | dose: 20.0 mg/kg/injection, schedule: Q01DX Z (ip), vehicle: methylcellulose (MC) 119 % of control | dose: 25.0 mg/kg/injection, schedule: Q01DX001 (ip), vehicle: carboxymethylcellulose (CMC) 100 % of control | dose: 25.0 mg/kg/injection, schedule: Q04DX003 (ip), vehicle: other 101 % of control | dose: 50.0 mg/kg/injection, schedule: Q01DX001 (ip), vehicle: carboxymethylcellulose (CMC) 114 % of control

Nc1cc(Cl)ccc1[N+](=O)[O-]
inactive: [5] 103 % of control | [6] 95 % of control | [7] 96 % of control

O=C1CCC=Cc2c(O)ccc(O)c21
inactive: [8] 91 % of control | [9] 93 % of control | [10] 96 % of control

CSC(=S)NN
inactive: dose: 2.0 mg/kg/injection, schedule: Q04DX002 (ip), vehicle: saline 113 % of control | dose: 4.0 mg/kg/injection, schedule: Q04DX002 (ip), vehicle: saline 110 % of control | dose: 8.0 mg/kg/injection, schedule: Q04DX002 (ip), vehicle: saline 94 % of control and 108 % of control

CCn1c(C)nc2cc(N=Cc3ccc(N(CCCl)CCCl)cc3)ccc21
inactive: [11] 113 % of control | dose: 200.0 mg/kg/injection, schedule: Q04DX002 (ip), vehicle: Klucel (hydroxypropylcellulose) (HPC) 106 % of control | dose: 400.0 mg/kg/injection, schedule: Q04DX002 (ip), vehicle: Klucel (hydroxypropylcellulose) (HPC) 106 % of control

O=[N+]([O-])C1CCCCC1O (configuration not stated)
inactive: [12] 103 % of control | [13] 105 % of control | [14] 100 % of control

CSc1nc(N)nc(N)n1
inactive: dose: 25.0 mg/kg/injection, schedule: Q01DX009 (ip), vehicle: Klucel (hydroxypropylcellulose) (HPC) 97 % of control | dose: 50.0 mg/kg/injection, schedule: Q01DX009 (ip), vehicle: Klucel (hydroxypropylcellulose) (HPC) 100 % of control | [15] 93 % of control and 90 % of control | [16] 98 % of control

CCC(=O)C(CCN(C)C)(c1ccccc1)c1ccccn1 (configuration not stated)
inactive: dose: 44.0 mg/kg/injection, schedule: Q01DX Z (ip), vehicle: saline 98 % of control | dose: 66.0 mg/kg/injection, schedule: Q01DX Z (ip), vehicle: saline 104 % of control

O=C1c2c(O)ccc([N+](=O)[O-])c2C(=O)c2c([N+](=O)[O-])ccc(O)c21
inactive: [15] 93 % of control | [1] 106 % of control | [16] 105 % of control | [2] 95 % of control | dose: 400.0 mg/kg/injection, schedule: Q01DX009 (ip), vehicle: Klucel (hydroxypropylcellulose) (HPC) 103 % of control | [3] 95 % of control

Cc1nccnc1N
inactive: dose: 25.0 mg/kg/injection, schedule: Q01DX009 (ip), vehicle: saline 112 % of control | dose: 50.0 mg/kg/injection, schedule: Q01DX009 (ip), vehicle: saline 110 % of control | dose: 100.0 mg/kg/injection, schedule: Q01DX009 (ip), vehicle: saline 95 % of control and 108 % of control | [5] 98 % of control | [6] 109 % of control | [7] 102 % of control

C(=N\N1CCN(/N=C/c2ccc3ccccc3n2)CC1)/c1ccc2ccccc2n1
inactive: [8] 89 % of control | [9] 86 % of control | [10] 94 % of control

C[N+](C)(C)c1ccccn1
inactive: dose: 75.0 mg/kg/injection, schedule: Q01DX001 (ip), vehicle: saline 102 % of control

Nc1ncnc2nc(-c3ccccc3)[nH]c12
inactive: dose: 25.0 mg/kg/injection, schedule: Q04DX002 (ip), vehicle: Klucel (hydroxypropylcellulose) (HPC) 102 % of control | dose: 50.0 mg/kg/injection, schedule: Q04DX002 (ip), vehicle: Klucel (hydroxypropylcellulose) (HPC) 94 % of control | [11] 91 % of control

C=CC[n+]1ccccc1C
inactive: dose: 50.0 mg/kg/injection, schedule: Q01DX009 (ip), vehicle: saline with Tween-80 91 % of control | dose: 100.0 mg/kg/injection, schedule: Q01DX009 (ip), vehicle: saline with Tween-80 91 % of control

CC(CC(=O)c1ccc(F)cc1)N1CCCCC1 (configuration not stated)
inactive: [8] 95 % of control | [9] 98 % of control

COC1OC(CO)C(O)C1n1cnc2c(N)ncnc21 (configuration not stated)
inactive: dose: 25.0 mg/kg/injection, schedule: Q01DX001 (ip), vehicle: saline 90 % of control | dose: 50.0 mg/kg/injection, schedule: Q01DX001 (ip), vehicle: saline 106 % of control | [4] 103 % of control

CC[N+](C)(C)CCC#N
inactive: [12] 95 % of control | [13] 101 % of control | [14] 101 % of control

O=C(OC1COC(O)C(OC(=O)c2ccccc2)C1OC(=O)c1ccccc1)c1ccccc1 (configuration not stated)
inactive: dose: 100.0 mg/kg/injection, schedule: Q01DX001 (ip), vehicle: saline with Tween-80 101 % of control | dose: 200.0 mg/kg/injection, schedule: Q01DX001 (ip), vehicle: saline with Tween-80 93 % of control

Oc1ccc2ccccc2c1-c1c(O)ccc2ccccc12
inactive: dose: 12.5 mg/kg/injection, schedule: Q01DX Z (ip), vehicle: other 106 % of control | dose: 25.0 mg/kg/injection, schedule: Q01DX Z (ip), vehicle: other 103 % of control | dose: 50.0 mg/kg/injection, schedule: Q01DX Z (ip), vehicle: other 106 % of control | [15] 97 % of control | dose: 100.0 mg/kg/injection, schedule: Q01DX Z (ip), vehicle: other 116 % of control | [1] 111 % of control | [16] 94 % of control | [2] 94 % of control | [3] 103 % of control

Source: PubChem BioAssay AID248 (DTP/NCI, 2004)
